Measurements as given in patent US11219625B2, “Inhibitors of N-linked glycosylation and methods using same” (YALE UNIVERSITY, priority 2015, dated 2022).

Tests used:
H3255 cells = test: Cell cycle distribution by flow cytometry, H3255; format: cell-based; details: H3255, NGI-1 24 h, p<0.05
Protocol: (§1) FIGS. 7A-7D illustrate EGFR kinase domain mutant cell lines growth inhibition and cell cycle arrest response to NGI-1. FIG. 7A illustrates MTT assays to determine the effects of NGI-1 on growth of H3255 cells. FIG. 7B illustrates MIT assays to determine the effects of NGI-1 on growth of HCC827 cells. EGFR kinase domain mutant cell lines H3255 and HCC827 cells were untreated or treated with 10 μM NGI-1 for 5 d. […] FIG. 7C illustrates cell cycle distribution of H3255 after 24 h NGI-1 treatment for 24 h determined by flow cytometry. FIG. 7D illustrates cell cycle distribution of HCC827 after 24 h NGI-1 treatment for 24 h determined by flow cytometry.
(§2) For the assessment of cell cycle distribution, 1×10^6 cells were collected, washed once with ice-cold PBS and fixed in ice-cold 70% ethanol overnight at −20° C. Thereafter, cells were washed twice with PBS and incubated for 30 min at room temperature in 200 μL of Guava Cell Cycle Reagent (Guava Technologies). Cytofluorometric acquisitions were performed on a LSRII cytometer (BD Biosciences). First-line analysis was performed with Flow Jo software, upon gating on the events characterized by normal forward and side scatter parameters and discrimination of doublets in a FSC-A vs. FSC-H bivariate plot. Approximately 30,000 cells were analyzed per experiment, and the mean value was obtained from 3 independent assays.

HCC827 cells = test: Cell cycle distribution by flow cytometry, HCC827; format: cell-based; details: HCC827, NGI-1 24 h, p<0.01
Protocol: as §1, §2

cyclin D1 = test: Cyclin D1 expression (qRT-PCR, western blot), A549; format: cell-based, human
Protocol: FIGS. 5A-5G illustrate NGI-1 induces G1 arrest and senescence in EGFR addicted tumor cells. FIG. 5A illustrates cell cycle distribution of PC9 cells after 24 h NGI-1 treatment for 24 h determined by flow cytometry. […] FIG. 5B illustrates cell cycle distribution of A549 cells after 24 h NGI-1 treatment for 24 h determined by flow cytometry. FIG. 5C illustrates western blot time course of cyclin D1 expression in PC9 and A549 cells after NGI-1 treatment. FIG. 5D illustrates quantitative real-time PCR analysis of PC9 and A549 cells. A time course of cyclin D1 expression levels relative to GAPDH is represented. […] FIG. 5F illustrates senescence of PC9 cells explored by: cell autofluorescence, measured by flow cytometry using a detector for PE/YFP; lipofuscin accumulation, detected by confocal laser scanning microscopy using an excitation laser of 405 nm with acquired signals from spectrums of yellow 575-620 nm; and morphology changes, enlarged vs. flattened. […] Significance was calculated using a T test (*p<0.05. **p<0.01). FIG. 5G illustrates senescence of A549 cells explored by: cell autofluorescence, measured by flow cytometry using a detector for PE/YFP; lipofuscin accumulation, detected by confocal laser scanning microscopy using an excitation laser of 405 nm with acquired signals from spectrums of yellow 575-620 nm; and morphology changes, enlarged vs. flattened. […]

Cc1cnc(NC(=O)c2cc(S(=O)(=O)N(C)C)ccc2N2CCCC2)s1 [NGI-1, 5-(N,N-Dimethylsulfamoyl)-N-(5-methylthiazol-2-yl)-2-(pyrrolidin-1-yl)benzamide]
cell cycle distribution (H3255 cells): undergo G1 arrest
cell cycle distribution (HCC827 cells): undergo G1 arrest
cyclin D1 mRNA and protein levels (cyclin D1): not significantly affected
